According to article PMC7935272 (PLoS Pathogens, 2021):
Several values for one entry are separate records, joined by “and”; a condition that tells them apart may be missing. Equal entries are not always repeated.

How the values were obtained:
MeV L1708 Y1106S = molecular target: MeV L1708 Y1106S; design: method as in PMID 32661315; details: BLI, reported previously ref 36; cited from earlier work
MeV L T1010N [1] = molecular target: T1, MeV L T1010N (Measles virus, UniProt P12576, T1010N); experiment: MeV minigenome dose-response assay, L T1010N; format: cell-based; details: EC50, L T1010N vs WT
T1 construct: expressed in transfected cells; host or cells: BSR-T7/5

MeV L S768A = molecular target: T2, MeV L S768A (Measles virus, UniProt P12576, S768A); experiment: MeV minigenome dose-response assay, L S768A; format: cell-based
T2 construct: expressed in transfected cells; host or cells: BSR-T7/5

MeV L Y1106S [2] = molecular target: T3, MeV L Y1106S (Measles virus, UniProt P12576, Y1106S); design: method as in PMID 32661315; details: minigenome, reported previously ref 36; cited from earlier work
T3 construct: expressed in transfected cells; host or cells: BSR-T7/5

MeV L H589Y = molecular target: T4, MeV L H589Y (Measles virus, UniProt P12576, H589Y); experiment: MeV minigenome dose-response assay, L H589Y; format: cell-based; details: for minigenome activity, individual repeat: H589Y, Figure 1E
T4 construct: expressed in transfected cells; host or cells: BSR-T7/5

MeV L E858D [3] = molecular target: T5, MeV L E858D (Measles virus, UniProt P12576, E858D); design: method as in PMID 32661315; details: minigenome, reported previously ref 36; cited from earlier work
T5 construct: expressed in transfected cells; host or cells: BSR-T7/5

MeV L T1010N [4] = molecular target: T1, MeV L T1010N; design: method as in PMID 32661315; details: minigenome, reported previously ref 36; cited from earlier work
MeV L1708 I1009F = molecular target: MeV L1708 I1009F; design: method as in PMID 32661315; details: BLI, reported previously ref 36; cited from earlier work
MeV L Y1106S [5] = molecular target: T3, MeV L Y1106S; experiment: MeV minigenome dose-response assay, L Y1106S; format: cell-based; details: EC50, L Y1106S vs WT
MeV L T776A = molecular target: T6, MeV L T776A (Measles virus, UniProt P12576, T776A); experiment: MeV minigenome dose-response assay, L T776A; format: cell-based
T6 construct: expressed in transfected cells; host or cells: BSR-T7/5

MeV L I1009F [6] = molecular target: T7, MeV L I1009F (Measles virus, UniProt P12576, I1009F); design: method as in PMID 32661315; details: minigenome, reported previously ref 36; cited from earlier work
T7 construct: expressed in transfected cells; host or cells: BSR-T7/5

MeV L E858D [7] = molecular target: T5, MeV L E858D; experiment: MeV minigenome dose-response assay, L E858D; format: cell-based; details: EC50, L E858D vs WT
MeV L = molecular target: T8, MeV L (Measles virus, UniProt P12576); experiment: MeV minigenome dose-response assay, L WT; format: cell-based; details: for minigenome activity, individual repeat: WT, Figure 1E
T8 construct: expressed in transfected cells; host or cells: BSR-T7/5

MeV L L1170F = molecular target: T9, MeV L L1170F (Measles virus, UniProt P12576, L1170F); experiment: MeV minigenome dose-response assay, L L1170F; format: cell-based; details: for minigenome activity, individual repeat: Figure 1E
T9 construct: expressed in transfected cells; host or cells: BSR-T7/5

MeV L V1239A = molecular target: T10, MeV L V1239A (Measles virus, UniProt P12576, V1239A); experiment: MeV minigenome dose-response assay, L V1239A; format: cell-based; details: for minigenome activity, individual repeat: Figure 1E
T10 construct: expressed in transfected cells; host or cells: BSR-T7/5

MeV L I1009F [8] = molecular target: T7, MeV L I1009F; experiment: MeV minigenome dose-response assay, L I1009F; format: cell-based; details: EC50, L I1009F vs WT
MeV L1708 E858D = molecular target: MeV L1708 E858D; design: method as in PMID 32661315; details: BLI, reported previously ref 36; cited from earlier work
MeV L1708 = MeV L1708 (Measles virus, UniProt Q9WMB3); design: method as in PMID 32661315; details: BLI, MeV L1708 WT; reported previously ref 36; cited from earlier work
in vitro = format: cell-based, African green monkey; details: African green monkey; Vero-hSLAM, 72 hours
Description: (§1) To determine cytotoxic concentrations Vero-hSLAM cells were plated in 96 well plates (1.1 × 10^4 per well) and incubated with three-fold serial dilutions of compound. After incubation of uninfected cells for 72 hours, PrestoBlue substrate (Invitrogen) was added to quantify cell metabolic activity as described. Signal was measured using a BioTek H1 synergy multimode microplate reader. Where applicable, cytotoxic concentrations (CC50) were calculated based on four-parameter variable slope regression modeling.

Vero-hSLAM cells = experiment: in vitro; format: cell-based, African green monkey
Description: as §1

MeV = experiment: Antiviral dose-response assay, MeV-NanoPEST reporter virus in Vero-hSLAM cells
WT MeV L-P complexes = WT MeV L-P complexes (Measles virus, UniProt Q9WMB3); experiment: In vitro MeV RdRP assay, de novo initiation, 16-nt template, L WT; format: biochemical; details: de novo RNA synthesis, S9 Fig

NC(=O)c1c(F)cccc1-c1cccc2cnccc12 [GHP-88309]
Kd (MeV L1708 Y1106S): > 300 µM | fold change to WT (MeV L T1010N [1]): 3.8 | fold change to WT (MeV L S768A; EC50, L S768A vs WT): 0.6 | EC50 (MeV L S768A; minigenome, L S768A): 1.26 µM | EC50 (MeV L Y1106S [2]): > 100 µM | fold change to WT (MeV L H589Y; EC50, L H589Y vs WT): 1.8 | minigenome activity, individual repeat (MeV L H589Y; GHP-88309 0.0457247 µM): 99.134 and 165.3 and 161.609 | minigenome activity, individual repeat (MeV L H589Y; GHP-88309 0.137174 µM): 129.072 and 126.646 and 70.0978 | minigenome activity, individual repeat (MeV L H589Y; GHP-88309 0.411523 µM): 102.614 and 60.5017 and 60.0219 | minigenome activity, individual repeat (MeV L H589Y; GHP-88309 1.23457 µM): 96.1391 and 78.5761 and 76.4935 | minigenome activity, individual repeat (MeV L H589Y; GHP-88309 3.7037 µM): 76.5304 and 44.0459 and 30.8961 | minigenome activity, individual repeat (MeV L H589Y; GHP-88309 11.1111 µM): 19.3913 and 21.0627 and 38.9421 | minigenome activity, individual repeat (MeV L H589Y; GHP-88309 33.3333 µM): 3.067 and 1.981 and 4.217 | minigenome activity, individual repeat (MeV L H589Y; GHP-88309 100 µM): -0.2175 and 2.229 and 0.06723 | EC50 (MeV L H589Y; minigenome, L H589Y): 3.91 µM | EC50 (MeV L E858D [3]): 15 µM | EC50 (MeV L T1010N [4]): 8.36 µM | Kd (MeV L1708 I1009F): 68.3 µM | fold change to WT (MeV L Y1106S [5]): >50 | fold change to WT (MeV L T776A; EC50, L T776A vs WT): 1.1 | EC50 (MeV L T776A; minigenome, L T776A): 2.39 µM | EC50 (MeV L I1009F [6]): 18.6 µM | fold change to WT (MeV L E858D [7]): 6.7 | minigenome activity, individual repeat (MeV L; GHP-88309 0.411523 µM): 87.746 and 92.4701 | minigenome activity, individual repeat (MeV L; GHP-88309 1.23457 µM): 77.6244 and 62.4876 and 68.5227 and 90 and 86 and 112 | minigenome activity, individual repeat (MeV L; GHP-88309 3.7037 µM): 31.991 and 34.7895 and 30.6512 and 25 and 32 and 29 | minigenome activity, individual repeat (MeV L; GHP-88309 11.1111 µM): 2.411 and 2.106 and 2.445 and 2 and 4 and 3 | minigenome activity, individual repeat (MeV L; GHP-88309 33.3333 µM): 1.248 and 0.5543 and 0.7091 and -4 and 2 and 3 | minigenome activity, individual repeat (MeV L; GHP-88309 100 µM): 0.7732 and 1.544 and 0.3453 | EC50 (MeV L; minigenome, L WT): 2.4 µM | fold change to WT (MeV L L1170F; EC50, L L1170F vs WT): 0.7 | minigenome activity, individual repeat (MeV L L1170F; GHP-88309 0.0457247 µM, L L1170F): 120 and 119 and 105 | minigenome activity, individual repeat (MeV L L1170F; GHP-88309 0.137174 µM, L L1170F): 97 and 98 and 103 | minigenome activity, individual repeat (MeV L L1170F; GHP-88309 0.411523 µM, L L1170F): 56 and 67 and 65 | minigenome activity, individual repeat (MeV L L1170F; GHP-88309 1.23457 µM, L L1170F): 92 (2×) and 86 | minigenome activity, individual repeat (MeV L L1170F; GHP-88309 3.7037 µM, L L1170F): 27 and 26 and 21 | minigenome activity, individual repeat (MeV L L1170F; GHP-88309 11.1111 µM, L L1170F): 0 (2×) and 1 | minigenome activity, individual repeat (MeV L L1170F; GHP-88309 33.3333 µM, L L1170F): -1 and 0 (2×) | EC50 (MeV L L1170F; minigenome, L L1170F): 2.41 µM | fold change to WT (MeV L V1239A; EC50, L V1239A vs WT): 0.7 | minigenome activity, individual repeat (MeV L V1239A; GHP-88309 0.0457247 µM, L V1239A): 96 and 97 and 118 | minigenome activity, individual repeat (MeV L V1239A; GHP-88309 0.137174 µM, L V1239A): 120 and 103 | minigenome activity, individual repeat (MeV L V1239A; GHP-88309 0.411523 µM, L V1239A): 66 and 59 (2×) | minigenome activity, individual repeat (MeV L V1239A; GHP-88309 1.23457 µM, L V1239A): 80 and 79 (2×) | minigenome activity, individual repeat (MeV L V1239A; GHP-88309 3.7037 µM, L V1239A): 33 (2×) and 30 | minigenome activity, individual repeat (MeV L V1239A; GHP-88309 11.1111 µM, L V1239A): 2 (2×) and 3 | minigenome activity, individual repeat (MeV L V1239A; GHP-88309 33.3333 µM, L V1239A): -2 and 1 (2×) | EC50 (MeV L V1239A; minigenome, L V1239A): 2.03 µM | fold change to WT (MeV L I1009F [8]): 8.3 | Kd (MeV L1708 E858D): 8.6 µM | Kd (MeV L1708): 6.2 µM

Cn1nc(C(F)(F)F)cc1C(=O)Nc1ccc(S(=O)(=O)N2CCCC[C@@H]2CCOCc2ccc(N=[N+]=[N-])cc2)cc1 [ERDRP-0519az, S(=O)(=O)(N1[C@@H](CCOCc2ccc(N=[N+]=[N-])cc2)CCCC1)c1ccc(NC(=O)c2n(C)nc(C(F)(F)F)c2)cc1]
CC50 (in vitro): > 100 µM | Cytotoxicity, normalized metabolic activity (Figure 5B) (Vero-hSLAM cells; cpd concentration 0.045725): 97.5938 and 98.2663 and 103.31 | Cytotoxicity, normalized metabolic activity (Figure 5B) (Vero-hSLAM cells; cpd concentration 0.137174): 101.061 and 94.8618 and 104.907 | Cytotoxicity, normalized metabolic activity (Figure 5B) (Vero-hSLAM cells; cpd concentration 0.411523): 95.7655 and 116.003 and 116.276 | Cytotoxicity, normalized metabolic activity (Figure 5B) (Vero-hSLAM cells; cpd concentration 1.23457): 92.9074 and 113.376 and 114.469 | Cytotoxicity, normalized metabolic activity (Figure 5B) (Vero-hSLAM cells; cpd concentration 3.7037): 94.1683 and 104.487 and 118.02 | Cytotoxicity, normalized metabolic activity (Figure 5B) (Vero-hSLAM cells; cpd concentration 11.1111): 88.7254 and 96.8582 and 105.432 | Cytotoxicity, normalized metabolic activity (Figure 5B) (Vero-hSLAM cells; cpd concentration 33.3333): 97.5097 and 90.4066 and 94.9249 | Cytotoxicity, normalized metabolic activity (Figure 5B) (Vero-hSLAM cells; cpd concentration 100): 99.0228 and 98.1192 and 101.776 | cytotoxicity (Vero-hSLAM cells; highest concentration tested (100 μM)): No cytotoxicity was detectable | EC50 (MeV): 12.1 µM | MeV inhibition, normalized reporter signal (Figure 5B) (MeV; cpd concentration 0.045725): 95.5633 and 136.086 and 77.2785 | MeV inhibition, normalized reporter signal (Figure 5B) (MeV; cpd concentration 0.137174): 112.785 and 92.1722 and 86.1147 | MeV inhibition, normalized reporter signal (Figure 5B) (MeV; cpd concentration 0.411523): 116.552 and 130.546 and 132.822 | MeV inhibition, normalized reporter signal (Figure 5B) (MeV; cpd concentration 1.23457): 119.15 and 109.045 and 127.688 | MeV inhibition, normalized reporter signal (Figure 5B) (MeV; cpd concentration 11.1111): 44.8748 and 67.0329 and 58.1588 | MeV inhibition, normalized reporter signal (Figure 5B) (MeV; cpd concentration 33.3333): 8.061 and 7.668 and 10.5185 | MeV inhibition, normalized reporter signal (Figure 5B) (MeV; cpd concentration 100): 2.512 and 3.634 and 2.904 | bioactivity in the in vitro RdRP assay (WT MeV L-P complexes): diminished potency
